Where two headings read alike, the source gives them in different places.
Key:
ovine COX-1 (oCOX-1) = target: T1, ovine COX-1 (oCOX-1) (Ovis aries, UniProt P05979); assay: LCMS-based COX-1 enzymatic inhibition assay (PGE2 quantification); type: biochemical
T1 construct: purchased Cayman Chemicals (Ann Arbor, Mich.)
T1 sequence (P05979 25-600): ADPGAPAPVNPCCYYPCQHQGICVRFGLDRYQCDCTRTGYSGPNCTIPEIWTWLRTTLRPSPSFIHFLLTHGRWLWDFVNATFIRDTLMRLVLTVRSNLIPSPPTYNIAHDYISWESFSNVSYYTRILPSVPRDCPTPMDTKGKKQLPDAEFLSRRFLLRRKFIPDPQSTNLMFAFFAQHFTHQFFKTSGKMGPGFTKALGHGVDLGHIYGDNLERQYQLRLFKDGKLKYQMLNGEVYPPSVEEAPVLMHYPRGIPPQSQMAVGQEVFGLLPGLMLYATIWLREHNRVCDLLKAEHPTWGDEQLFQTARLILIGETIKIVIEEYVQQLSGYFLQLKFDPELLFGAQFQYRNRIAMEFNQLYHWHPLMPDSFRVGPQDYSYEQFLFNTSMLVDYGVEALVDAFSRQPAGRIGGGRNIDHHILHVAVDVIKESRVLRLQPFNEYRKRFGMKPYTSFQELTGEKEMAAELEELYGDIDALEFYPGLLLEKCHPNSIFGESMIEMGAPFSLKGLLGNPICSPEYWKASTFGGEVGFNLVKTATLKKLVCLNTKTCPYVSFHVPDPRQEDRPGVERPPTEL
Protocol: We have adapted a previously reported cyclooxygenase enzymatic assay utilizing LCMS quantification of PGE2 as the product of COX-1 and COX2 catalyzed conversion of arachidonic acid to evaluate the binding properties of newly synthesized ligands [Cao, 2011]. These optimized and miniaturized (384-well plates) LCMS-based COX-1 and COX2 enzymatic assays enabled us to quickly evaluate newly synthesized ligands for COX2 binding affinity and selectivity vs COX-1. Using a shorter ligand-enzyme incubation time in the LCMS assay (2 minutes vs 10 minutes) also permitted us to prioritize ligands with faster binding kinetics. Considering the relatively slow on-rate kinetics of known coxibs, due to their 3-step binding mechanism [Marnett, 2009], we believe that optimizing this critical parameter will be key to the successful development of a COX2 PET tracer. Using these enzymatic assays, we have evaluated>200 newly synthesized ligands against COX2 and >20 ligands against COX-1. Another critical property necessary for a good PET radiotracer is to have low non-specific binding (NSB) to increase the free fraction and maximize the signal to noise ratio. This property can be evaluated using in-vitro protein binding assays, and we have now evaluated>50 newly synthesized ligands in mouse, rat and human plasma protein binding (PPB) assays as well as >15 ligands in a mouse brain protein binding (BPB) assay.
Ovine COX-1 (oCOX-1), ovine COX2 (oCOX2), human recombinant COX2 (hCOX2), arachidonic acid, PGE2, d4-PGD2, and […] (labeled with deuterium atoms at positions 3 and 4) were purchased from Cayman Chemicals (Ann Arbor, Mich.). The cofactors (−)epinephrine and hematin, and the COX inhibitors indomethacin, resveratrol and diclofenac were purchased from Sigma-Aldrich (St. Louis, Mo.). Celecoxib was purchased from 3B PharmaChem International (Wuhan, China). All organic solvents were HPLC grade or better and were purchased from Thermo Fisher (Hanover Park, Ill.). Formic acid was purchased from EMD Chemicals (San Diego, Calif.). Purified water was prepared by using a Millipore Milli-Q purification system (Millipore, Billerica, Mass.). All other chemicals and solvents were ACS reagent grade, unless stated otherwise.
In an Eppendorf tube, 146 μL of 100 mM Tris.HCl (pH 8.0) buffer, 2 μL of 100 μM hematin (co-factor) and 10 μL of 40 mM L-epinephrine (co-factor) were mixed at room temperature. Next, 20 μL of Tris.HCl (pH 8.0) buffer containing 0.2 μg COX2 or 0.1 μg COX-1 (approximately 1 unit of enzyme; 1 unit COX utilizes 1 nmol 02/mg/min at 37° C.) was added, and the solution was incubated at room temperature for 2 min. A 2 μL aliquot of the COX inhibitor in DMSO was added to the enzyme solution and preincubated at 37° C. for 10 min. Negative controls were identical except that 2 μL aliquots of DMSO without inhibitor were used instead.
Each COX reaction was initiated by adding 20 μL of arachidonic acid in Tris.HCl (pH 8.0) buffer to give a final concentration of 5 μM; and the reaction was terminated after 2 min by adding 20 μL of 2.0 M HCl. The surrogate standards d4-PGE2 and d4-PGD2 (10 μL aliquot of 50 ng/mL solution in methanol) were added to correct for errors or degradation during sample handling and for variation in injection volume or instrument response during LC-MS-MS. After 30 min, PGE2, PGD2 and their surrogate standards were extracted from each incubation mixture using 800 μL hexane/ethyl acetate (50:50, v/v). The organic phase was removed, evaporated to dryness, and reconstituted in 100 μL methanol/water (50:50, v/v) for analysis using LC-MS-MS.
The concentration of PGE2 in each sample was measured using LC-MS-MS, and the percent of COX inhibition by each test solution was determined by comparing the amount of PGE2 produced in the experiment with that produced in the negative control incubation. The formation of PGD2 was measured for quality control purposes, since the levels of PGD2 should be proportional to those of PGE2. […]

[1] = target: T2, human recombinant COX2 (hCOX2) (UniProt P35354); assay: LCMS-based COX2 enzymatic inhibition assay (PGE2 quantification); type: biochemical; parameters: COX2 2 minutes pge2/pge2d4 area ratio Avg; other: 2 minutes; readout pge2/pge2d4 area ratio; average; COX2 2 minutes pge2/pge2d4 area ratio Avg; LLE; average LLE; COX2 2 minutes pge2 area (counts) Avg; readout pge2 area (counts); other: 2 min; "ovine COX2 (oCOX2), human recombinant COX2 (hCOX2)"; conditions: for IC50: average
T2 sequence (P35354 1-604): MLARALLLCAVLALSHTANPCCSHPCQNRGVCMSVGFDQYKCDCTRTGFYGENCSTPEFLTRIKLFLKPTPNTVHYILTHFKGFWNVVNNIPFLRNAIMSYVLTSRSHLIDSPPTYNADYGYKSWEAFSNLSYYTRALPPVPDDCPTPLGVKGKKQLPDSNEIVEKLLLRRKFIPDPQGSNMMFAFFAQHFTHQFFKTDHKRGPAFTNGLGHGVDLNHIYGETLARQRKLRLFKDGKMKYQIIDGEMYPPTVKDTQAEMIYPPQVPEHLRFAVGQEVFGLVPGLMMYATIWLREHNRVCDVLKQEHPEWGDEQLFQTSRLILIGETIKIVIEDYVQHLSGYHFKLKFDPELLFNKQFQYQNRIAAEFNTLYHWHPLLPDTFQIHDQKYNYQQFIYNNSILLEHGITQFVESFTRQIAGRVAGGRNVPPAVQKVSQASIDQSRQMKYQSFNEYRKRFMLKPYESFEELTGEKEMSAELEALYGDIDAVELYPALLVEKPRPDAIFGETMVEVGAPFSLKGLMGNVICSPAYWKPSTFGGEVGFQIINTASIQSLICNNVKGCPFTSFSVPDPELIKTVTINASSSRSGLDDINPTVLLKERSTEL
Outline: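 Ovine COX-1 (0.1 μg) or human recombinant COX2 (0.2 μg) in 100 mM Tris.HCl pH 8.0 with hematin and epinephrine, preincubated with inhibitor 10 min at 37 °C. Reaction with 5 μM arachidonic acid stopped after 2 min with HCl; PGE2 quantified by LC-MS-MS. IC50 from 12 concentrations in triplicate.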

[2] = 10 minutes, readout pge2/pge2d4 area ratio, average LLE
[3] = 10 minutes, readout pge2/pge2d4 area ratio, average, read-out: COX1 10 minutes pge2/pge2d4 area ratio Avg. IC50
[4] = 10 minutes, readout pge2 area (counts), average LLE
[5] = 10 minutes, readout pge2 area (counts), average, read-out: COX1 10 minutes pge2 area (counts) Avg. IC50
[6] = 2 minutes, readout pge2/pge2d4 area ratio, average LLE
[7] = 2 minutes, readout pge2/pge2d4 area ratio, read-out: COX2 2 minutes pge2/pge2d4 area ratio Avg. IC50
[8] = 2 minutes, readout pge2 area (counts), average LLE
[9] = 2 minutes, readout pge2 area (counts), read-out: COX2 2 minutes pge2 area (counts) Avg. IC50
[10] = 10 minutes, pge2/pge2d4 area ratio, head of this section not shown, inferred
[11] = 10 minutes, pge2 area (counts), head of this section not shown, inferred
[12] = 10 minutes, pge2 area (counts), head of this section not shown, inferred, read-out: COX1 10 minutes pge2 area (counts) Avg. IC50

SMILES | COX1 10 minutes pge2/pge2d4 area ratio Avg. LLE (ovine COX-1 (oCOX-1); [2]) | IC50 (ovine COX-1 (oCOX-1); [3]) [nM] | COX1 10 minutes pge2 area (counts) Avg. LLE (ovine COX-1 (oCOX-1); [4]) | IC50 (ovine COX-1 (oCOX-1); [5]) [nM] | COX2 2 minutes pge2/pge2d4 area ratio Avg. LLE [1, 6] | IC50 [1, 7] [nM] | COX2 2 minutes pge2 area (counts) Avg. LLE [1, 8] | IC50 [1, 9] [nM] | COX1 10 minutes pge2/pge2d4 area ratio Avg. LLE (ovine COX-1 (oCOX-1); [10]) | COX1 10 minutes pge2 area (counts) Avg. LLE (ovine COX-1 (oCOX-1); [11]) | IC50 (ovine COX-1 (oCOX-1); [12]) [nM] | COX2 10 minutes pge2 area (counts) Avg. LLE [1, 4] | IC50 ([1]; 10 minutes, readout pge2 area (counts), read-out: COX2 10 minutes pge2 area (counts) Avg. IC50) [nM] | IC50 (ovine COX-1 (oCOX-1)) [nM]
CS(=O)(=O)c1ccc(-c2cccc(OCc3ccc(F)s3)n2)cc1 [Compound 30] | 0.1181 | 42800 | 0.2149 | 34300 | 3.668 | 15 | 3.685 | 12.2 |  |  |  |  |  | 
CSc1ccc(-c2cncc(OCc3cccs3)n2)cc1 [Compound 253] |  |  |  |  | 1.5751 | 3760 | 1.45 | 4840 |  | 0.8637 | 19300 |  |  | 
CS(=O)(=O)c1ccc(-c2cncc(NCc3ccccc3)n2)cc1 [Compound 93] |  |  |  |  | 5.017 | 69 | 5.139 | 55.8 |  | 2.104 |  | 5.9924 | 6.85 | 
CS(=O)(=O)c1ccc(-n2ccc3ccc(NCc4cccs4)nc32)cc1 [Compound 57] |  |  |  |  | 3.1281 | 30.6 | 3.132 | 29.8 | −0.196 | −0.1826 | 50400 |  |  | 52000
CS(=O)(=O)c1ccc(-c2cccc(NCc3ccns3)n2)cc1 [Compound 87] |  | 42600 |  |  | 4.854 | 61.9 | 4.881 | 56.5 | 1.97 | 1.899 | 50200 |  |  | 
CS(=O)(=O)c1ccc(-c2cccc(OCc3cccs3)n2)nc1 [Compound 37] | 2.056 | 39200 | 2.13 | 33100 | 5.44 | 18.1 | 5.694 | 14.3 |  |  |  |  |  | 

Second part, led by results:

COX1 10 minutes pge2/pge2d4 area ratio Avg. LLE (ovine COX-1 (oCOX-1); [2]) | IC50 (ovine COX-1 (oCOX-1); [3]) [nM] | COX1 10 minutes pge2 area (counts) Avg. LLE (ovine COX-1 (oCOX-1); [4]) | IC50 (ovine COX-1 (oCOX-1); [5]) [nM] | COX2 2 minutes pge2/pge2d4 area ratio Avg. LLE [1, 6] | IC50 [1, 7] [nM] | COX2 2 minutes pge2 area (counts) Avg. LLE [1, 8] | IC50 [1, 9] [nM] | COX1 10 minutes pge2/pge2d4 area ratio Avg. LLE (ovine COX-1 (oCOX-1); [10]) | COX1 10 minutes pge2 area (counts) Avg. LLE (ovine COX-1 (oCOX-1); [11]) | IC50 (ovine COX-1 (oCOX-1); [12]) [nM] | COX2 10 minutes pge2 area (counts) Avg. LLE [1, 4] | IC50 ([1]; 10 minutes, readout pge2 area (counts), read-out: COX2 10 minutes pge2 area (counts) Avg. IC50) [nM] | SMILES | IC50 (ovine COX-1 (oCOX-1)) [nM]
1.694 | 2860 | 1.673 | 3000 | 4.364 | 6.26 | 4.247 | 8.2 |  |  |  |  |  | CS(=O)(=O)c1ccc(-c2cc(F)cc(OCc3cccs3)n2)cc1 [Compound 6] | 
 | 1990 |  |  | 3.897 | 35.1 | 3.961 | 27.1 | 2.0906 | 2.128 | 1830 |  |  | CS(=O)(=O)c1ccc(-c2ccc3cnn(Cc4cccs4)c3n2)cc1 [Compound 63] | 
1.328 | 6640 | 1.301 | 7060 | 3.877 | 20 | 3.805 | 23.2 |  |  |  |  |  | CS(=O)(=O)c1ccc(-c2ccc(F)c(OCc3cccs3)n2)cc1 [Compound 45] | 
 | 38300 |  |  | 4.034 | 68.6 | 4.0886 | 65.3 | 1.267 | 1.134 |  |  |  | Cc1ccoc1CNc1cccc(-c2ccc(S(C)(=O)=O)cc2)n1 [Compound 91] | 
 | 19600 |  |  | 3.0886 | 38.9 | 3.016 | 45.2 | 0.3787 | 0.343 | 21200 |  |  | CS(=O)(=O)c1ccc(-c2cc3ccoc3c(NCc3cccs3)n2)cc1 [Compound 67] | 

Source: US20220348590A1, “CYCLOOXYGENASE-2 INHIBITORS AND USES THEREOF” (The Board Institute, Inc., priority 2019, published 2022)
